Experimental findings from US20260000736A1, “PURIFIED LACTOFERRIN COMPOSITIONS AND METHODS OF USE” (Lactea Therapeutics LLC, priority 2023, published 2026) are described below.

In one assay the test system is SARS-CoV-2. The assay is described as follows: SARS-CoV-2 Cytopathic Effect (CPE) reduction assay in Vero E6 cells. Particulars: Severe acute respiratory syndrome coronavirus 2, Vero C1008, 72 h. Type of assay: cell-based.
For assay [1], the system named is pigs with dermatome wounds. The assay can be described thus: Pig dermatome wound healing model. Type of assay: in vivo. Particulars: dermatome wounds 40×40 mm at a depth of 0.76 mm, topical treatment.
Procedure: In a first assessment in a pig model setting, using a dermatome, six wounds were made on each pig with three on the left side and three on the right side of each pig covering a surface area of 40×40 mm at a depth of 0.76 mm. […] For each pig, the wounds on the left of the animal were treated while the wounds on the right wide were left as untreated controls. […] Standard of care was advised on by veterinarians with experience in dealing with wound management in a farm setting.

Molecules are shown by their SMILES. Where a SMILES comes first, the peptide text is derived from it. Bridges are numbered along the chain shown (N, C = ends). [ ]: non-standard residue; d: D form. The star is where a group is joined. Ileψ(thiazoline)Cys = CC[C@H](C)[C@H](N)C1=N[C@H](C(=O)*)CS1; dOrn = NCCC[C@@H](N)C(=O)O

Consider `CCC(CC)COC(=O)[C@H](C)N[P@](=O)(OC[C@H]1O[C@@](C#N)(c2ccc3c(N)ncnn23)[C@H](O)[C@@H]1O)Oc1ccccc1` [Remdesivir, reference compound], for which, in the assay on SARS-CoV-2, the EC50 amounted to 4.5 µM.

Consider `CC[C@H](C)[C@H](N)C1=N[C@H](C(=O)N[C@@H](CC(C)C)C(=O)N[C@H](CCC(=O)O)C(=O)N[C@H](C(=O)N[C@H]2CCCCNC(=O)[C@H](CC(N)=O)NC(=O)[C@@H](CC(=O)O)NC(=O)[C@H](Cc3cnc[nH]3)NC(=O)[C@@H](Cc3ccccc3)NC(=O)[C@H]([C@@H](C)CC)NC(=O)[C@@H](CCCN)NC2=O)[C@@H](C)CC)CS1` [bacitracin, reference compound] ({Ileψ(thiazoline)Cys}-L[dE]IK[dOrn]I[dF]H[dD]N; lactam 4-C), for which the wound healing entry in assay [1] was “treated wounds were still open after one week”.
